Experimental data from patent US20040110954A1, “Methods of synthesizing phenol-contining compounds” (priority 2003, published 2004).
Read-outs that look alike come from different tables or passages of the source.

Tests used:
[1] = Glucuronidation in rat hepatic microsomes with UDPGA; settings: rat hepatic microsomes ca. 0.5 mg/mL protein, 0.5 uM compound, UDPGA 4 mM, pH 7.4, 37° C.
Method: (§1) The standard procedure for these experiments is as follows: incubations were performed in a final volume of 1.0 mL in a heated block at approximately 37° C. Each incubation contained approximately 0.5 mg/mL microsomal protein and 0.5 uM of the compound. The incubations were conducted with 50 mM potassium phosphate buffer (pH 7.4) and, following a 5 min preincubation at 37° C., were initiated by the addition of cofactor (UDPGA, 4 mM). Aliquots were removed every three minutes and were quenched with two volumes of ACN/EtOH/Acetic acid (80:20:1) containing an appropriate internal standard. Samples were store frozen (ca.−70° C.) until analysis for the quantitation of the parent compound by LC/MS methods. The rate of disappearance of each compound was determined from relative concentration versus time profiles fitted to appropriate exponential decay equations. CLint (mL/min/g liver) was calculated using standard scaling factors.

[2] = In vivo half-life and clearance in the rat; settings: male Sprague-Dawley rats; crossover: 60 min iv infusion, then oral gavage; plasma, noncompartmental analysis
Method: Method for Determining the in vivo Half-life (T½) of Compounds in Table 3. The study was conducted using a crossover design on two separate study days. Three male Sprague-Dawley rats received surgically implanted catheters in the vena cava (via the femoral vein), and in the femoral artery at least three days prior to the study. […] On study day two, the animals (fasted) received the compound by oral gavage (16.0 mL/kg). […] Blood samples were collected prior to dosing and at various times following administration of compounds. Plasma concentrations of the compounds were quantified by an HPLC/MS/MS method (LLQ=10 ng/mL). Noncompartmental analysis was used for pharmacokinetic analysis of plasma concentration versus time data.

[3] = Glucuronidation in human hepatic microsomes with UDPGA; settings: human hepatic microsomes ca. 0.5 mg/mL protein, 0.5 uM compound, UDPGA 4 mM, pH 7.4, 37° C.
Method: as §1

[4] = microsomes, pH 7.4
Method: as §1

[5] = microsomes, pH 7.4; remark: listed apart in the source
Method: as §1

| Molecule | Clint (mL/min/g liver) rat ([1]; Table 1 diphenylureas) [mL/min/g liver] | CLint (mL/min/g liver) human ([3]; Table 1 diphenylureas) [mL/min/g liver] | also measured |
| --- | --- | --- | --- |
| CN(C)S(=O)(=O)c1c(Cl)ccc(NC(=O)Nc2cccc(Cl)c2Cl)c1O [Table 1 Entry 3, N-[4-Chloro-3-(N″,N″-dimethylaminosulfonyl)-2-hydroxyphenyl]-N′-(2,3-dichlorophenyl) urea] | <0.6 | <0.6 | Clint (mL/min/g liver) rat ([1]; Table 2 squaramide series): 12 mL/min/g liver; Cl [2]: 65 mL/min/kg; T½ [2]: 11.4 min; CLint (mL/min/g liver) human ([3]; Table 2 squaramide series): 16 mL/min/g liver |
| CN(C)S(=O)(=O)c1c(Cl)ccc(NC(=O)Nc2ccccc2Br)c1O [Table 1 Entry 4, N-(2-Bromophenyl)-N′[4-chloro-3-(N″,N″-dimethylaminosulfonyl)-2-hydroxyphenyl] urea] | <0.6 | <0.6 | Clint (mL/min/g liver) rat ([1]; Table 2 squaramide series): 5.1 mL/min/g liver; Cl [2]: 72 mL/min/kg; CLint (mL/min/g liver) human ([3]; Table 2 squaramide series): 28 mL/min/g liver |
| CNS(=O)(=O)c1c(Cl)ccc(NC(=O)Nc2cccc(Cl)c2Cl)c1O [Table 1 Entry 5, N-[4-chloro-2-hydroxy-3-(N″-methylaminosulfonyl)phenyl]-N′-(2,3-dichlorophenyl) urea] | <0.6 | <0.6 | Clint (mL/min/g liver) rat ([1]; Table 2 squaramide series): 6.7 mL/min/g liver; Cl [2]: 26 mL/min/kg; T½ [2]: 5.4 min; CLint (mL/min/g liver) human ([3]; Table 2 squaramide series): >50 mL/min/g liver |
| CNS(=O)(=O)c1c(Cl)ccc(NC(=O)Nc2ccccc2Br)c1O [Table 1 Entry 6, N′-(2-bromophenyl)-N′-[4-chloro-2-hydroxy-3-(N″-methylaminosulfonyl)phenyl] urea] |  |  | CLint (mL/min/g liver) human [4]: <0.6 mL/min/g liver; Clint (mL/min/g liver) rat [5]: <0.6 mL/min/g liver |
| COCCNS(=O)(=O)c1c(Cl)ccc(NC(=O)Nc2cccc(Cl)c2Cl)c1O [Table 1 Entry 7, N-[4-chloro-2-hydroxy-3-[N″-(2-methoxyethyl)sufonyl]phenyl]-N′-(2,3-dichlorophenyl) urea] | <0.6 | <0.6 |  |
| CS(=O)(=O)c1c(Cl)ccc(NC(=O)Nc2cccc(Cl)c2Cl)c1O [Table 1 Entry 8, 1-(4Chloro-2-hydroxy-3-methanesulfonyl-phenyl)-3-(2,3-dichloro-phenyl)-urea] | <0.6 | <0.6 |  |
| CS(=O)(=O)c1c(C#N)ccc(NC(=O)Nc2ccccc2Br)c1O [Table 1 Entry 9, 1-(2-Bromo-phenyl)-3-(4-cyano-2-hydroxy-3-methanesulfonyl-phenyl)-urea] | <0.6 | <0.6 |  |
| CCCc1c(C#N)ccc(NC(=O)Nc2ccccc2Br)c1O [Table 1 Entry 10, 1-(2-Bromo-phenyl)-3-(4-cyano-2-hydroxy-3-propyl-phenyl)-urea] |  | 11.3 | melting point: 174 to 175 °C |
| CCC(C)c1c(C#N)ccc(NC(=O)Nc2ccccc2Br)c1O (stereo not shown) [Table 1 Entry 11, 1-(2-Bromo-phenyl)-3-[4-cyano-2-hydroxy-3-(1-methyl-propyl)-phenyl]-urea] |  | 2.8 |  |
| CCCC(C)c1c(C#N)ccc(NC(=O)Nc2ccccc2Br)c1O (stereo not shown) [Table 1 Entry 12, 1-(2-Bromo-phenyl)-3-[4-cyano-2-hydroxy-3-(1-methyl-butyl)-phenyl]-urea] |  | 2.4 |  |
| CC(C)Cc1c(C#N)ccc(NC(=O)Nc2ccccc2Br)c1O [Table 1 Entry 13, 1-(2-Bromo-phenyl)-3-(4-cyano-2-hydroxy-3-isobutyl-phenyl)-urea] |  | 7.6 |  |
| N#Cc1ccc(NC(=O)Nc2ccccc2Br)c(O)c1Br [Table 1 Entry 14, 1-(3-Bromo-4-cyano-2-hydroxy-phenyl)-3-(2-bromo-phenyl)-urea] |  |  | CLint (mL/min/g liver) human [4]: 3.7 mL/min/g liver; Clint (mL/min/g liver) rat [5]: 27 mL/min/g liver |
| C[S+]([O-])c1c(Cl)ccc(NC(=O)Nc2cccc(Cl)c2Cl)c1O (stereo not shown) [Table 1 Entry 15, 1-(4-Chloro-2-hydroxy-3-methanesulfinyl-phenyl)-3-(2,3-dichloro-phenyl)-urea] | 2.6 | 4.1 |  |
| NS(=O)(=O)Cc1c(Cl)ccc(NC(=O)Nc2cccc(Cl)c2Cl)c1O [Table 1 Entry 16, {6-Chloro-3-[3-(2,3-dichloro-phenyl)-ureido]-2-hydroxy-phenyl}-methanesulfonamide] | 1.3 | 11 |  |
| NC(=O)c1c(Cl)ccc(NC(=O)Nc2ccccc2Br)c1O [Table 1 Entry 17, 3-[3-(2-Bromo-phenyl)-ureido]-6-chloro-2-hydroxy-benzamide] | 5.2 | 15.4 |  |
| O=C(Nc1ccc(Cl)c(C(=O)Nc2ccccc2)c1O)Nc1cccc(Cl)c1Cl [Table 1 Entry 18, 6-Chloro-3-[3-(2,3-dichloro-phenyl)-ureido]-2-hydroxy-N-phenyl-benzamide] | 9.3 | 11 | melting point: 244 to 245 °C |
| O=C(Nc1ccc(Cl)c(C(=O)N2CCOCC2)c1O)Nc1cccc(Cl)c1Cl [Table 1 Entry 19, 1-[4-Chloro-2-hydroxy-3-(1-morpholin-4-yl-methanoyl)-phenyl]-3-(2,3-dichloro-phenyl)-urea] | 24 | 21 |  |
| N-(4-chloro-2-hydroxy-3-aminosulfonylphenyl)-N′-(2,3-dichlorophenyl) urea sodium salt [Example 1] | <0.6 | <0.6 | Clint (mL/min/g liver) rat ([1]; Table 2 squaramide series): <0.6 mL/min/g liver; Cl [2]: 4.6 mL/min/kg; T½ [2]: 636 min; CLint (mL/min/g liver) human ([3]; Table 2 squaramide series): <0.6 mL/min/g liver |
